Assay results: patent publication US11952586B2, “B-cell cultivation method” (Hoffmann-La Roche Inc., priority 2017, dated 2024)

System: single deposited B-cells
Test: co-cultivation of single deposited B-cells with EL-4 B5 feeder cells; IgG in supernatant by ELISA
Format: cell-based, rabbit
Settings: for frequency per plate of rbIgG-positive wells: 5,000 non-irradiated EL-4 B5 cells per well
Procedure: Single cell sorted B-cells were cultured in 96-well plates with 200 μl/well EL-4 B5 medium with Pansorbin Cells (SAC) (Calbiochem (Merck), Darmstadt, Deutschland), EL-4 B5 cells (0-5×10^4/well) and rabbit thymocyte supernatant or cytokine mix, respectively, for 7 days at 37° C. in an atmosphere of 5% CO2 in the incubator. B-cell culture supernatants were removed for screening and the cells harvested immediately for variable region gene cloning or frozen at −80° C. in 100 μl RLT buffer (Qiagen, Hilden, Germany).
A mixture of 0.5 μg/ml of biotinylated mouse anti-rabbit IgG antibody (Sigma-Aldrich) and 0.35 μg/ml anti-rabbit IgG HRP conjugate (Sigma-Aldrich) was transferred to 384 well streptavidin coated microtiter plates (MicroCoat Biotechnologie GmbH). Dilutions of B-cell supernatants in PBS supplemented with 0.5% BSA and 0.05% Tween®-20 were added and incubated for 90 min at RT. After repeated washing (6×) with PBST (phosphate buffered saline with 0.2% Tween buffer the plates were developed with BM Blue® HRP substrate solution and color formation was measured by absorbance at 370 nm. A commercial rabbit IgG (Sigma-Aldrich) was used as a calibration standard.

[1] = PMA 0.048 ng/ml, 3 Gy, 15k/Well
[2] = PMA 0.048 ng/ml, 4 Gy, 20k/Well
[3] = PMA 0.048 ng/ml, 5 Gy, 20k/Well
[4] = PMA 0.048 ng/ml, 8 Gy, 20k/Well
[5] = PMA 0.048 ng/ml, 50 Gy, 50k/Well
[6] = PMA 0.109 ng/ml, 3 Gy, 15k/Well
[7] = PMA 0.109 ng/ml, 4 Gy, 20k/Well
[8] = PMA 0.109 ng/ml, 5 Gy, 20k/Well
[9] = PMA 0.109 ng/ml, 8 Gy, 20k/Well
[10] = PMA 0.109 ng/ml, 50 Gy, 50k/Well
[11] = PMA 0.25 ng/ml, 50 Gy, 50k/Well

Question: Which “influence of PMA concentration on frequency of IgG positive wells or productivity” value (4 Gy irradiated EL-4 B5 cells, 0.015 ng/ml to 1.3 ng/ml PMA) does the source give for CCCCCCCCCCCCCC(=O)O[C@@H]1[C@@H](C)[C@@]2(O)[C@@H](C=C(CO)C[C@]3(O)C(=O)C(C)=C[C@@H]23)[C@@H]2C(C)(C)[C@]12OC(C)=O [PMA, phorbol-12-myristate-13-acetate] here?
Answer: no influence

Question: What about the “effect of the addition of PMA on frequency and productivity” value (50 Gy irradiated EL-4 B5 cells) of the same molecule?
Answer: concentration dependent effect

Question: And the “Average IgG Productivity of all IgG+ wells” value (“Average IgG Productivity” for short) [1]?
Answer: 1.405 µg/mL

Question: And the “IgG+ Frequency” value [1]?
Answer: 48.8 % total wells

Question: And the “Average IgG Productivity” value [2]?
Answer: 5.465 µg/mL

Question: What about the “IgG+ Frequency” value [2] of the same molecule?
Answer: 73.8 % total wells

Question: What about the “Average IgG Productivity” value [3] of the same molecule?
Answer: 5.769 µg/mL

Question: And the “IgG+ Frequency” value [3]?
Answer: 71.4 % total wells

Question: What about the “Average IgG Productivity” value [4] of the same molecule?
Answer: 5.739 µg/mL

Question: And the “IgG+ Frequency” value [4]?
Answer: 84.5 % total wells

Question: And the “Average IgG Productivity” value [5]?
Answer: 2.821 µg/mL

Question: What about the “IgG+ Frequency” value [5] of the same molecule?
Answer: 14.3 % total wells

Question: And the “frequency per plate of rbIgG-positive wells” value (from here on “frequency per plate”) (PMA 0.08 ng/ml, 0.031x CM)?
Answer: 39.3 % total

Question: And the “frequency per plate” value (PMA 0.08 ng/ml, 0.1x CM)?
Answer: 44.0 % total

Question: And the “frequency per plate” value (PMA 0.08 ng/ml, 0.31x CM)?
Answer: 51.2 % total

Question: What about the “frequency per plate” value (PMA 0.08 ng/ml, 1x CM) of the same molecule?
Answer: 65.5 % total

Question: And the “frequency per plate” value (PMA 0.08 ng/ml, 2x CM)?
Answer: 65.5 % total

Question: What about the “Average IgG Productivity” value [6] of the same molecule?
Answer: 2.932 µg/mL

Question: And the “IgG+ Frequency” value [6]?
Answer: 47.6 % total wells

Question: What about the “Average IgG Productivity” value [7] of the same molecule?
Answer: 5.772 µg/mL

Question: What about the “IgG+ Frequency” value [7] of the same molecule?
Answer: 76.2 % total wells

Question: What about the “Average IgG Productivity” value [8] of the same molecule?
Answer: 5.335 µg/mL

Question: And the “IgG+ Frequency” value [8]?
Answer: 83.3 % total wells

Question: What about the “Average IgG Productivity” value [9] of the same molecule?
Answer: 5.614 µg/mL

Question: And the “IgG+ Frequency” value [9]?
Answer: 77.4 % total wells

Question: And the “Average IgG Productivity” value [10]?
Answer: 1.942 µg/mL

Question: What about the “IgG+ Frequency” value [10] of the same molecule?
Answer: 16.7 % total wells

Question: And the “frequency per plate” value (PMA 0.14 ng/ml, 0.031x CM)?
Answer: 35.7 % total

Question: What about the “frequency per plate” value (PMA 0.14 ng/ml, 0.1x CM) of the same molecule?
Answer: 52.4 % total

Question: And the “frequency per plate” value (PMA 0.14 ng/ml, 0.31x CM)?
Answer: 54.8 % total

Question: And the “frequency per plate” value (PMA 0.14 ng/ml, 1x CM)?
Answer: 69.0 % total

Question: And the “frequency per plate” value (PMA 0.14 ng/ml, 2x CM)?
Answer: 54.8 % total

Question: And the “frequency per plate” value (PMA 0.25 ng/ml, 0.031x CM)?
Answer: 53.6 % total

Question: What about the “frequency per plate” value (PMA 0.25 ng/ml, 0.1x CM) of the same molecule?
Answer: 54.8 % total

Question: What about the “frequency per plate” value (PMA 0.25 ng/ml, 0.31x CM) of the same molecule?
Answer: 73.8 % total

Question: And the “frequency per plate” value (PMA 0.25 ng/ml, 1x CM)?
Answer: 65.5 % total

Question: What about the “frequency per plate” value (PMA 0.25 ng/ml, 2x CM) of the same molecule?
Answer: 48.8 % total

Question: What about the “Average IgG Productivity” value (PMA 0.25 ng/ml, 3 Gy, 15k/Well) of the same molecule?
Answer: 3.094 µg/mL

Question: And the “IgG+ Frequency” value (PMA 0.25 ng/ml, 3 Gy, 15k/Well)?
Answer: 47.6 % total wells

Question: What about the “Average IgG Productivity” value (PMA 0.25 ng/ml, 4 Gy, 20k/Well) of the same molecule?
Answer: 4.61 µg/mL

Question: And the “IgG+ Frequency” value (PMA 0.25 ng/ml, 4 Gy, 20k/Well)?
Answer: 75 % total wells

Question: What about the “Average IgG Productivity” value (PMA 0.25 ng/ml, 5 Gy, 20k/Well) of the same molecule?
Answer: 5.313 µg/mL

Question: And the “IgG+ Frequency” value (PMA 0.25 ng/ml, 5 Gy, 20k/Well)?
Answer: 84.5 % total wells

Question: What about the “Average IgG Productivity” value (PMA 0.25 ng/ml, 8 Gy, 20k/Well) of the same molecule?
Answer: 5.945 µg/mL

Question: What about the “IgG+ Frequency” value (PMA 0.25 ng/ml, 8 Gy, 20k/Well) of the same molecule?
Answer: 88.1 % total wells

Question: And the “Average IgG Productivity” value [11]?
Answer: 1.893 µg/mL

Question: What about the “IgG+ Frequency” value [11] of the same molecule?
Answer: 20.2 % total wells

Question: What about the “frequency per plate” value (PMA 0.43 ng/ml, 0.031x CM) of the same molecule?
Answer: 67.9 % total

Question: What about the “frequency per plate” value (PMA 0.43 ng/ml, 0.1x CM) of the same molecule?
Answer: 72.6 % total

Question: And the “frequency per plate” value (PMA 0.43 ng/ml, 0.31x CM)?
Answer: 71.4 % total

Question: And the “frequency per plate” value (PMA 0.43 ng/ml, 1x CM)?
Answer: 50.0 % total

Question: What about the “frequency per plate” value (PMA 0.43 ng/ml, 2x CM) of the same molecule?
Answer: 45.2 % total

Question: And the “Average IgG Productivity” value (PMA 0.57 ng/ml, 3 Gy, 15k/Well)?
Answer: 6.067 µg/mL
